Results on 15 compounds are retold here after ChEMBL document CHEMBL3576858, “A natural product based DOS library of hybrid systems” (Eur J Med Chem, 2015).

Series [1] concerns Plasmodium falciparum. Kind of series: Antiplasmodial activity against Plasmodium falciparum 3D7 infected in O positive erythrocytes assessed as inhibition of parasite growth at 1 uM by FACS-based assay. It is filed as functional. For orientation: In flow cytometry, cells or beads pass a laser one at a time.
Series [2] concerns HepG2. Description: Cytotoxicity against human HepG2 cells at 100 uM after 24 hrs by MTT colorimetric assay. The series is classed as cell-based. The conditions noted are these: hepg2, 24 h. For orientation: Tetrazolium assays rely on reduction of a dye to a coloured formazan, in cell work by metabolically active cells.
Series [3] has as its system Plasmodium falciparum. Kind of series: Antiplasmodial activity against Plasmodium falciparum 3D7 infected in O positive erythrocytes assessed as inhibition of parasite growth at 30 uM by FACS-based assay. The series is classed as functional.
Series [4] relates to Plasmodium falciparum. Kind of series: Antiplasmodial activity against Plasmodium falciparum 3D7 infected in O positive erythrocytes assessed as inhibition of parasite growth at 20 uM by FACS-based assay. It is filed as functional.
Series [5] concerns Plasmodium falciparum. Description: Antiplasmodial activity against Plasmodium falciparum 3D7 infected in O positive erythrocytes assessed as inhibition of parasite growth at 500 nM by FACS-based assay. The series is classed as functional.
The test system of series [6] is Plasmodium falciparum. Description: Antiplasmodial activity against Plasmodium falciparum 3D7 infected in O positive erythrocytes assessed as inhibition of parasite growth at 10 uM by FACS-based assay. It is filed as functional.
For series [7], the system named is HepG2. Kind of series: Cytotoxicity against human HepG2 cells at 1 uM after 24 hrs by MTT colorimetric assay. The series is classed as cell-based. The conditions noted are these: hepg2, 24 h.
Series [8] deals with Plasmodium falciparum. Kind of series: Antiplasmodial activity against Plasmodium falciparum 3D7 infected in O positive erythrocytes assessed as inhibition of parasite growth at 40 uM by FACS-based assay. The series is classed as functional.
Series [9] relates to HepG2. Description: Cytotoxicity against human HepG2 cells at 10 uM after 24 hrs by MTT colorimetric assay. The series is classed as cell-based. The conditions noted are these: hepg2, 24 h.
In series [10] the test system is Plasmodium falciparum. Description: Antiplasmodial activity against Plasmodium falciparum 3D7 infected in O positive erythrocytes assessed as inhibition of parasite growth at 50 uM by FACS-based assay. It is filed as functional.
In series [11] the test system is Plasmodium falciparum. Kind of series: Antiplasmodial activity against Plasmodium falciparum 3D7 infected in O positive erythrocytes assessed as parasitemia at 50 uM after 24 hrs by FACS-based assay (reference value: 1.670%). The series is classed as functional.
The test system of series [12] is Plasmodium falciparum. Description: Antiplasmodial activity against Plasmodium falciparum 3D7 infected in O positive erythrocytes assessed as parasitemia at 50 uM after 48 hrs by FACS-based assay (reference value: 3.484%). It is filed as functional.
In series [13] the test system is Plasmodium falciparum. Description: Antiplasmodial activity against Plasmodium falciparum 3D7 infected in O positive erythrocytes assessed as parasitemia at 50 uM after 36 hrs by FACS-based assay (reference value: 1.617%). It is filed as functional.

One may read the inhibition as the share of the control response that was lost under treatment.

For the compound `CN(C)C[C@@H]1Cc2ccccc2[C@@]2(C)C[C@]3(C(=O)Nc4ccccc43)C(=O)N12`, the inhibition at 1 µM in the series on Plasmodium falciparum [1] was determined as 1.92%. Besides, the Activity was -29% with HepG2 [2], -54% in the series with HepG2 [7] and 1% in the series with HepG2 [9]. Also, the inhibition at 30 µM with Plasmodium falciparum [3] was determined as 48.1%. For the same compound, the inhibition at 20 µM in the series on Plasmodium falciparum [4] worked out at 44.2%. The inhibition at 0.5 µM in the series on Plasmodium falciparum [5] worked out at 0%. Further, the inhibition at 10 µM in the series with Plasmodium falciparum [6] came to 30.1%. Moreover, the inhibition at 40 µM in the series on Plasmodium falciparum [8] was found to be 51.9%. Besides, the inhibition at 50 µM with Plasmodium falciparum [10] was determined as 59.7%.
As for `C[C@]12CC3(CC=CC3)C(=O)N1[C@H](CO)Cc1ccccc12`, the Activity in the series with HepG2 [2] was -155%; in the series with HepG2 [7], -5%; in the series with HepG2 [9], -24%; with Plasmodium falciparum [11] it was 0.7444%; with Plasmodium falciparum [12], 0.9149%; in the series with Plasmodium falciparum [13], 1.161%. Moreover, the inhibition at 10 µM with Plasmodium falciparum [6] amounted to 1.8%. Also, the inhibition at 50 µM with Plasmodium falciparum [10] was 2.13%.
Regarding `CN(C)C[C@@H]1Cc2ccccc2[C@@]2(C)C[C@@]3(C(=O)Nc4cc(N)ccc43)C(=O)N12`, the Activity in the series on HepG2 [2] is reported as -39%; with HepG2 [7] it was -52%; in the series on HepG2 [9], -6%. The inhibition at 10 µM with Plasmodium falciparum [6] amounted to 5.38%. Moreover, in the series with Plasmodium falciparum [10], the inhibition at 50 µM was 10.1%.
For `CCOC(=O)[C@]1(c2ccc([N+](=O)[O-])cc2[N+](=O)[O-])C[C@]2(C)c3ccccc3C[C@@H](CN(C)C)N2C1=O`, the inhibition at 1 µM in the series with Plasmodium falciparum [1] amounted to 0%. Further, the inhibition at 30 µM in the series with Plasmodium falciparum [3] turned out to be 48.9%. The inhibition at 20 µM in the series on Plasmodium falciparum [4] was 21.1%. Moreover, the inhibition at 0.5 µM in the series on Plasmodium falciparum [5] came to 0%. In the series with Plasmodium falciparum [6], the inhibition at 10 µM was determined as 71.6%. In addition, the inhibition at 40 µM with Plasmodium falciparum [8] is 61.5%. Also, the Activity is recorded as 1.737% in the series with Plasmodium falciparum [11], 1.283% in the series on Plasmodium falciparum [12] and 1.217% with Plasmodium falciparum [13]. In addition, the inhibition at 50 µM in the series on Plasmodium falciparum [10] was 89.6%.
As to `C[C@]12C[C@@]3(C(=O)NCC3c3ccccc3)C(=O)N1[C@H](CO)Cc1ccccc12` (stereo not given in full), the Activity in the series on Plasmodium falciparum [11] turned out to be 1.209%; in the series on Plasmodium falciparum [12], 1.058%; in the series with Plasmodium falciparum [13], 1.255%.
Consider `C[C@]12C[C@]3(C(=O)NCC3c3ccccc3)C(=O)N1[C@H](CO)Cc1ccccc12` (stereo not given in full), for which the Activity is given as -41% with HepG2 [2], -29% with HepG2 [7] and -19% in the series on HepG2 [9].
With `CCOC(=O)C1C[C@]2(C)c3ccccc3C[C@@H](CN(C)C)N2C1=O` (stereo not given in full), in the series with Plasmodium falciparum [6], the inhibition at 10 µM was found to be 7.19%. In addition, the inhibition at 50 µM in the series with Plasmodium falciparum [10] was 74.5%.
As for `CN(C)C[C@@H]1Cc2ccccc2[C@@]2(C)C[C@@]3(C(=O)Nc4ccccc43)C(=O)N12`, the inhibition at 1 µM in the series with Plasmodium falciparum [1] was 2.64%. The Activity in the series on HepG2 [2] was -4%; in the series with HepG2 [7] it was -7%; in the series on HepG2 [9] it was -4%. Further, the inhibition at 30 µM in the series on Plasmodium falciparum [3] is 52.4%. Besides, the inhibition at 20 µM with Plasmodium falciparum [4] amounted to 37%. Moreover, the inhibition at 0.5 µM with Plasmodium falciparum [5] came to 0.721%. In addition, the inhibition at 10 µM in the series with Plasmodium falciparum [6] was 14.8%. Moreover, in the series on Plasmodium falciparum [8], the inhibition at 40 µM was 59.1%. Further, the inhibition at 50 µM in the series on Plasmodium falciparum [10] amounted to 64.6%.
For `CN(C)C[C@@H]1Cc2ccccc2[C@@]2(C)C[C@]3(C(=O)Nc4cc(N)ccc43)C(=O)N12`, the inhibition at 1 µM in the series with Plasmodium falciparum [1] came to 2.88%. Also, the Activity in the series with HepG2 [2] is -36%; in the series with HepG2 [7] it was -23%; in the series with HepG2 [9], 5%. Moreover, the inhibition at 30 µM with Plasmodium falciparum [3] was 53.9%. Moreover, the inhibition at 20 µM in the series on Plasmodium falciparum [4] stood at 34.6%. For the same compound, the inhibition at 0.5 µM with Plasmodium falciparum [5] was 0%. The inhibition at 10 µM with Plasmodium falciparum [6] stood at 6.54%. Also, the inhibition at 40 µM in the series with Plasmodium falciparum [8] turned out to be 62.5%. The inhibition at 50 µM in the series on Plasmodium falciparum [10] is 82.3%.
With `C[C@]12CCC(=O)N1[C@H](CO)Cc1ccccc12`, the inhibition at 10 µM in the series on Plasmodium falciparum [6] came to 5.67%. Also, in the series on Plasmodium falciparum [10], the inhibition at 50 µM stood at 19.1%.
As to `C=CCC1(CC=C)C[C@]2(C)c3ccccc3C[C@@H](CO)N2C1=O`, the inhibition at 10 µM with Plasmodium falciparum [6] is 2.27%. Moreover, the inhibition at 50 µM in the series on Plasmodium falciparum [10] stood at 3.1%.
With `COC(=O)C1(C(C[N+](=O)[O-])c2ccccc2)C[C@]2(C)c3ccccc3C[C@@H](CO)N2C1=O` (mixture of isomers), the Activity in the series with HepG2 [2] is listed as -55%; in the series with HepG2 [7], -45%; in the series with HepG2 [9] it was -3%. Also, the inhibition at 10 µM with Plasmodium falciparum [6] is 1.21%. Besides, the inhibition at 50 µM in the series with Plasmodium falciparum [10] worked out at 1.9%.
As to `CN(C)C[C@@H]1Cc2ccccc2[C@@]2(C)CCC(=O)N12`, the inhibition at 10 µM in the series with Plasmodium falciparum [6] came to 1.92%. Further, the inhibition at 50 µM in the series with Plasmodium falciparum [10] was 12.7%.
On to `C[C@]12CC3(CCCC3)C(=O)N1[C@H](CO)Cc1ccccc12`, for which the Activity in the series on HepG2 [2] is 10%; with HepG2 [7], -63%; in the series with HepG2 [9], -15%; in the series with Plasmodium falciparum [11], 1.024%; in the series with Plasmodium falciparum [12], 1.06%; in the series on Plasmodium falciparum [13], 1.407%. In addition, in the series on Plasmodium falciparum [6], the inhibition at 10 µM was 0.971%. For the same compound, the inhibition at 50 µM in the series with Plasmodium falciparum [10] stood at 1.53%.
Consider `CCOC(=O)[C@@]1(c2ccc([N+](=O)[O-])cc2[N+](=O)[O-])C[C@]2(C)c3ccccc3C[C@@H](CN(C)C)N2C1=O`, for which the inhibition at 1 µM with Plasmodium falciparum [1] came to 5.77%. Besides, the inhibition at 30 µM in the series on Plasmodium falciparum [3] was 52.9%. For the same compound, the inhibition at 20 µM in the series with Plasmodium falciparum [4] was determined as 48.1%. In addition, the inhibition at 0.5 µM in the series on Plasmodium falciparum [5] stood at 0%. In the series on Plasmodium falciparum [6], the inhibition at 10 µM stood at 0.385%. For the same compound, in the series on Plasmodium falciparum [8], the inhibition at 40 µM was determined as 66.5%. Also, the Activity in the series with Plasmodium falciparum [11] turned out to be 1.421%; in the series on Plasmodium falciparum [12], 0.9355%; in the series with Plasmodium falciparum [13], 1.571%. Moreover, the inhibition at 50 µM in the series with Plasmodium falciparum [10] was 91.5%.
